For nine compounds, TGI results are on record in PubChem BioAssay (NCI).

Test systems include MOLT-4 leukemia; MDA-N; RXF 393 renal; SF-295 CNS; UACC-62 melanoma; OVCAR-5 ovarian; BT-549 breast; SK-OV-3 ovarian; MDA-MB-231 breast; HOP-92 NSCLC; SK-MEL-5 melanoma; T-47D breast; SW-620 colon; OVCAR-8 ovarian; EKVX NSCLC.
Common to all, as to assay: inhibition of tumour cell growth, NCI panel, 48 h

Structures are written as SMILES.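 Dose response: 5 concentrations. Exposure: 48 h. Format: 96-well plates. Endpoint: linear interpolation; highest concentration if not reached. TGI: concentration producing complete growth inhibition.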

In the case of `CCOC(=O)c1c(-c2ccc(Cl)cc2)c(C#N)c(=S)n(C2OC(CO)C(O)C(O)C2O)c1-c1ccccc1` (configuration not stated), the TGI with MOLT-4 leukemia is 46.7 µM; in the assay with MDA-N, 49.9 µM; in the assay on RXF 393 renal, 47.1 µM; with SF-295 CNS, 40.3 µM; in the assay on UACC-62 melanoma it was 38.2 µM; with OVCAR-5 ovarian, 40.8 µM. Also, the TGI came out at 61.3 µM in the assay with BT-549 breast; 96.2 µM in the assay with SK-OV-3 ovarian; 75.9 µM in the assay with MDA-MB-231 breast; 42.6 µM in the assay with HOP-92 NSCLC; 29.3 µM in the assay with SK-MEL-5 melanoma; 54.4 µM in the assay on T-47D breast. The TGI with SW-620 colon turned out to be 46.7 µM.
With `COCC1OCCN1C` (configuration not stated), the TGI with MOLT-4 leukemia, in the assay on MDA-N, in the assay with RXF 393 renal, in the assay on SF-295 CNS, in the assay on UACC-62 melanoma and in the assay on OVCAR-5 ovarian was > 100 µM in each case. Further, the TGI in the assay with OVCAR-8 ovarian, in the assay on BT-549 breast, with SK-OV-3 ovarian, in the assay on MDA-MB-231 breast, with HOP-92 NSCLC and in the assay with SK-MEL-5 melanoma was > 100 µM each time. Moreover, the TGI in the assay with EKVX NSCLC, in the assay with T-47D breast and with SW-620 colon was > 100 µM in each case.
Regarding `CC1=C(C#N)C(=O)N(/N=C/c2ccc(Cl)cc2)C(=O)/C1=c1\o/c(=C2/C(=O)N(/N=C/c3ccc(Cl)cc3)C(=O)C(C#N)=C2C)c2nccnc12`, the TGI in the assay on MOLT-4 leukemia, with MDA-N, in the assay on RXF 393 renal, with SF-295 CNS, with UACC-62 melanoma and with OVCAR-5 ovarian was > 100 µM throughout. Moreover, the TGI with OVCAR-8 ovarian, in the assay on BT-549 breast, with SK-OV-3 ovarian, with MDA-MB-231 breast, in the assay on HOP-92 NSCLC and with SK-MEL-5 melanoma was > 100 µM throughout. The TGI with EKVX NSCLC, with T-47D breast and in the assay with SW-620 colon was > 100 µM each time.
Turning to `CC(C(O)c1ccccc1)N(C)/N=N/c1nc2c([nH]1)c(=O)n(C)c(=O)n2C` (configuration not stated), the TGI in the assay with MOLT-4 leukemia, in the assay on MDA-N, with RXF 393 renal, in the assay with SF-295 CNS, in the assay with UACC-62 melanoma and with OVCAR-5 ovarian was > 100 µM each time. For the same compound, the TGI with OVCAR-8 ovarian, in the assay with BT-549 breast, in the assay with SK-OV-3 ovarian, in the assay with MDA-MB-231 breast, in the assay on SK-MEL-5 melanoma and with EKVX NSCLC was > 100 µM in each case. Besides, the TGI in the assay on T-47D breast and with SW-620 colon was > 100 µM each time.
Turning to `CC(C)CC(NC(=O)OCc1ccccc1)C(=O)NCCCCC(N)C(=O)NC(CCCCNC(=O)C(CC(C)C)NC(=O)OCc1ccccc1)C(=O)NC(CCCCNC(=O)C(CC(C)C)NC(=O)OCc1ccccc1)C(=O)NC(CCCCNC(=O)C(CC(C)C)NC(=O)OCc1ccccc1)C(=O)NC(CCCCNC(=O)C(CC(C)C)NC(=O)OCc1ccccc1)C(=O)NC(CCCCNC(=O)C(CC(C)C)NC(=O)OCc1ccccc1)C(=O)O` (configuration not stated), the TGI in the assay on MOLT-4 leukemia, in the assay with MDA-N, in the assay with UACC-62 melanoma, with OVCAR-5 ovarian, in the assay with OVCAR-8 ovarian and in the assay on BT-549 breast was > 100 µM in each case. For the same compound, the TGI with MDA-MB-231 breast, with SK-MEL-5 melanoma, with T-47D breast and in the assay with SW-620 colon was > 100 µM in each case.
As to `C/C(=C\c1csc(C)n1)[C@@H]1C[C@@H]2O[C@]2(C)CCC[C@H](C)[C@H](O)[C@@H](C)C(=O)C(C)(C)[C@@H](O)CC(=O)O1` (tested in a mixture with another compound), the TGI in the assay on MOLT-4 leukemia is > 0.307 µM; with MDA-N it was 0.00205 µM; in the assay with RXF 393 renal it was 0.0211 µM; with SF-295 CNS it was 0.0369 µM; in the assay on UACC-62 melanoma, > 1 µM; with OVCAR-5 ovarian, > 1 µM. The TGI is > 0.33 µM in the assay on OVCAR-8 ovarian; > 1 µM in the assay with BT-549 breast; > 0.72 µM in the assay with SK-OV-3 ovarian; > 0.346 µM in the assay with MDA-MB-231 breast; > 1 µM in the assay with HOP-92 NSCLC; > 1 µM with SK-MEL-5 melanoma. Moreover, the TGI in the assay on EKVX NSCLC, in the assay on T-47D breast and in the assay on SW-620 colon was > 1 µM each time.
On to `CCC/C(Cl)=N\OC(=O)Nc1ccc(Br)cc1`, for which the TGI with MOLT-4 leukemia was found to be 6.07 µM; with MDA-N, 27.3 µM; in the assay with RXF 393 renal, 31 µM; in the assay on SF-295 CNS, 30.2 µM; with UACC-62 melanoma, 44.7 µM; in the assay with OVCAR-5 ovarian, 27.8 µM. The TGI turned out to be 28.9 µM with OVCAR-8 ovarian; 62.6 µM in the assay with BT-549 breast; 30.5 µM in the assay with SK-OV-3 ovarian; 33.8 µM in the assay on MDA-MB-231 breast; 9.17 µM in the assay on HOP-92 NSCLC; 27.7 µM with SK-MEL-5 melanoma. Moreover, the figures for the TGI in the assay on EKVX NSCLC, in the assay on T-47D breast and in the assay on SW-620 colon were 29 µM, 25.2 µM and 5.52 µM, respectively.
Consider `Cc1ccc(S(=O)(=O)Oc2coc(CO)cc2=O)cc1`, for which the TGI was > 88.5 µM in the assay on MOLT-4 leukemia; 25.8 µM in the assay with MDA-N; 30 µM in the assay on RXF 393 renal; 31.3 µM in the assay with SF-295 CNS; 25.3 µM with UACC-62 melanoma; 31.8 µM in the assay with OVCAR-5 ovarian. Moreover, the TGI in the assay with OVCAR-8 ovarian is > 50 µM; with BT-549 breast, 39.2 µM; in the assay on SK-OV-3 ovarian, 37.7 µM; in the assay on MDA-MB-231 breast, 41.7 µM; in the assay on HOP-92 NSCLC, 39.6 µM; in the assay with SK-MEL-5 melanoma, 33.7 µM. In addition, the TGI in the assay on EKVX NSCLC was 30.1 µM; in the assay on T-47D breast it was 30 µM; in the assay with SW-620 colon it was 42 µM.
Take `C=CCN1C(=O)N/C(=C\c2ccc(Cl)cc2)C1=O`: the TGI in the assay with MOLT-4 leukemia, in the assay with MDA-N, in the assay on RXF 393 renal, in the assay with SF-295 CNS, in the assay with UACC-62 melanoma and in the assay on OVCAR-5 ovarian was > 100 µM throughout. Besides, the TGI in the assay on OVCAR-8 ovarian, with BT-549 breast, in the assay on SK-OV-3 ovarian, in the assay with MDA-MB-231 breast, in the assay on HOP-92 NSCLC and in the assay with SK-MEL-5 melanoma was > 100 µM in each case. The TGI with EKVX NSCLC, in the assay with T-47D breast and in the assay on SW-620 colon was > 100 µM throughout.
